Measured values reported in ChEMBL document CHEMBL1139953, “Bis[(para-methoxy)benzyl] phosphonate prodrugs with improved stability and enhanced cell penetration” (Bioorg Med Chem Lett, 2007).

Legend:
Hepatocyte = assay: Drug activation in rat hepatocytes by measuring intracellular NMPA levels at 100 uM after 1 hr; type: cell-based
[1] = Stability assessed as half life in rat plasma; type: ADME, cell-free
[2] = Stability assessed as half life in Krebs bicarbonate buffer at 37degC; type: physicochemical
Liver microsomes [3] = assay: Drug activation in NADPH-fortified human liver microsomes assessed as rate of NMPA formation; set-up: species or system Microsome
Liver microsomes [4] = assay: Drug activation in NADPH-fortified rat liver microsomes assessed as rate of NMPA formation; set-up: species or system Microsome
Nucleic Acid = assay: Ratio of drug activation in NADPH-fortified human liver microsomes to NADPH-fortified rat liver microsomes assessed as rate of NMPA formation; set-up: species or system Microsome
Liver microsomes [5] = assay: Drug activation in human liver microsomes assessed as rate of NMPA formation; set-up: species or system Microsome
Liver = assay: Drug activation in NADPH-fortified rat liver without microsomes assessed as rate of NMPA formation; set-up: species or system Microsome

COc1c(Br)cc(COP(=O)(Cc2cccc3ccccc23)OCc2cc(Br)c(OC)c(Br)c2)cc1Br
Activity (Hepatocyte): 0 nmol/g

O=P(O)(O)Cc1cccc2ccccc12
Activity (Hepatocyte): 0 nmol/g

CCOc1ccc(COP(=O)(Cc2cccc3ccccc23)OCc2ccc(OCC)c(Cl)c2)cc1Cl
half-life [1]: > 2 h
Activity (Hepatocyte): 54 nmol/g

COc1ccc(COP(=O)(Cc2cccc3ccccc23)OCc2ccc(OC)cc2)cc1
half-life [2]: 0.15 h
half-life [1]: 0.15 h
Activity (Hepatocyte): 91 nmol/g

COc1ccc(COP(=O)(Cc2cccc3ccccc23)OCc2ccc(OC)c(C#N)c2)cc1C#N
half-life [1]: > 2 h
Activity (Hepatocyte): 73 nmol/g

CCOP(=O)(Cc1cccc2ccccc12)OCC
Activity (Hepatocyte): 0 nmol/g

COc1ccc(COP(=O)(Cc2cccc3ccccc23)OCc2ccc(OC)c(C(C)=O)c2)cc1C(C)=O
Activity (Hepatocyte): 0 nmol/g

COc1ccc(COP(=O)(Cc2cccc3ccccc23)OCc2ccc(OC)c(Cl)c2)cc1Cl
half-life [2]: > 2 h
half-life [1]: > 2 h
Activity (Hepatocyte): 130 nmol/g
Activity (Liver microsomes [3]): 4.52 pmol/min/mg
Activity (Liver microsomes [4]): 1.58 pmol/min/mg
Ratio (Nucleic Acid): 2

CC(C)C(=O)OCOP(=O)(Cc1cccc2ccccc12)OCOC(=O)C(C)C
half-life [1]: 0.00833 h
Activity (Hepatocyte): 85 nmol/g

COc1ccc(COP(=O)(Cc2cccc3ccccc23)OCc2ccc(OC)c(Br)c2)cc1Br
half-life [2]: > 2 h
half-life [1]: > 2 h
Activity (Hepatocyte): 76 nmol/g
Activity (Liver microsomes [3]): 4.85 pmol/min/mg
Activity (Liver microsomes [5]): 0 pmol/min/mg
Activity (Liver microsomes [4]): 2.76 pmol/min/mg
Activity (Liver): 0 pmol/min/mg
Ratio (Nucleic Acid): 2

CCCOc1ccc(COP(=O)(Cc2cccc3ccccc23)OCc2ccc(OCCC)c(Cl)c2)cc1Cl
Activity (Hepatocyte): 0 nmol/g

COc1cc(COP(=O)(Cc2cccc3ccccc23)OCc2cc(Br)c(OC)c(Br)c2)cc(OC)c1OC (stereo not given)
Activity (Hepatocyte): 26 nmol/g

COc1ccc(COP(=O)(Cc2cccc3ccccc23)OCc2ccc(OC)c(C(F)(F)F)c2)cc1C(F)(F)F
half-life [1]: > 2 h
Activity (Hepatocyte): 46 nmol/g

COc1ccc(COP(=O)(Cc2cccc3ccccc23)OCc2ccc(OC)c(F)c2)cc1F
half-life [2]: > 2 h
half-life [1]: > 2 h
Activity (Hepatocyte): 125 nmol/g
Activity (Liver microsomes [3]): 5.23 pmol/min/mg
Activity (Liver microsomes [4]): 2.94 pmol/min/mg
Ratio (Nucleic Acid): 2

COc1c(Cl)cc(COP(=O)(Cc2cccc3ccccc23)OCc2cc(Cl)c(OC)c(Cl)c2)cc1Cl
Activity (Hepatocyte): 0 nmol/g

COc1ccc(COP(=O)(Cc2cccc3ccccc23)OCc2ccc(OC)c([N+](=O)[O-])c2)cc1[N+](=O)[O-]
half-life [1]: > 2 h
Activity (Hepatocyte): 60 nmol/g
